Test results as given in patent US11572369B2, “Bicyclic pyridine compositions and methods of using the same for cancer therapy” (UNIVERSITY OF SOUTH CAROLINA, priority 2019, dated 2023).

Tests used:
Test in all cases: KINOMEscan
Format in all cases: binding
Conditions in all cases: 2000 nM
[1] = target: ABL1-nonphosphorylated (Homo sapiens, UniProt P00519)
[2] = target: T1, ACVR1 (Homo sapiens, UniProt Q04771)
T1 construct: purchased DiscoveRx (KINOMEscan scanMAX panel, service)

[3] = target: T2, ALK (Homo sapiens, UniProt Q9UM73)
T2 construct: purchased DiscoveRx (KINOMEscan scanMAX panel, service)

[4] = target: T3, AMPK-alpha1 (Homo sapiens, UniProt Q13131)
T3 construct: DNA label (qPCR read-out); purchased KINOMEscan scanMAX panel (DiscoveRx)

[5] = target: T4, CAMK2G (Homo sapiens, UniProt Q13555)
T4 construct: DNA label (qPCR read-out); purchased KINOMEscan (ScanMAX panel service)

[6] = target: T5, CDK11 (CDK19) (Homo sapiens, UniProt Q9BWU1)
T5 construct: purchased DiscoverX (KINOMEscan service)

[7] = target: T6, CDKL2 (Homo sapiens, UniProt Q92772)
T6 construct: DNA label (for qPCR read-out); purchased DiscoveRx (KINOMEscan scanMAX service)

[8] = target: T7, CSNK1G2 (Homo sapiens, UniProt P78368)
T7 construct: DNA label; purchased DiscoveRx (KINOMEscan scanMAX panel)

[9] = target: T8, DYRK2 (Homo sapiens, UniProt Q92630)
T8 construct: DNA label (qPCR read-out); purchased KINOMEscan (DiscoveRx) panel

[10] = target: T9, EGFR(L861Q) (Homo sapiens, UniProt P00533, L861Q)
T9 construct: purchased DiscoveRx (KINOMEscan scanMAX panel)

[11] = target: T10, EPHB2 (Homo sapiens, UniProt P29323)
T10 construct: purchased DiscoveRx (KINOMEscan scanMAX panel)

[12] = target: T11, FLT3(D835Y) (Homo sapiens, UniProt P36888, D835Y)
T11 construct: purchased DiscoveRx (KINOMEscan scanMAX panel)

[13] = target: T12, GRK2 (Homo sapiens, UniProt P25098)
T12 construct: DNA label (for qPCR read-out); purchased DiscoveRx (KINOMEscan scanMAX panel, contract assay)

[14] = target: T13, HIPK1 (Homo sapiens, UniProt Q86Z02)
T13 construct: DNA label (for qPCR read-out); purchased DiscoveRx (KINOMEscan scanMAX panel, contract assay)
T13 sequence (Q86Z02 whole entry): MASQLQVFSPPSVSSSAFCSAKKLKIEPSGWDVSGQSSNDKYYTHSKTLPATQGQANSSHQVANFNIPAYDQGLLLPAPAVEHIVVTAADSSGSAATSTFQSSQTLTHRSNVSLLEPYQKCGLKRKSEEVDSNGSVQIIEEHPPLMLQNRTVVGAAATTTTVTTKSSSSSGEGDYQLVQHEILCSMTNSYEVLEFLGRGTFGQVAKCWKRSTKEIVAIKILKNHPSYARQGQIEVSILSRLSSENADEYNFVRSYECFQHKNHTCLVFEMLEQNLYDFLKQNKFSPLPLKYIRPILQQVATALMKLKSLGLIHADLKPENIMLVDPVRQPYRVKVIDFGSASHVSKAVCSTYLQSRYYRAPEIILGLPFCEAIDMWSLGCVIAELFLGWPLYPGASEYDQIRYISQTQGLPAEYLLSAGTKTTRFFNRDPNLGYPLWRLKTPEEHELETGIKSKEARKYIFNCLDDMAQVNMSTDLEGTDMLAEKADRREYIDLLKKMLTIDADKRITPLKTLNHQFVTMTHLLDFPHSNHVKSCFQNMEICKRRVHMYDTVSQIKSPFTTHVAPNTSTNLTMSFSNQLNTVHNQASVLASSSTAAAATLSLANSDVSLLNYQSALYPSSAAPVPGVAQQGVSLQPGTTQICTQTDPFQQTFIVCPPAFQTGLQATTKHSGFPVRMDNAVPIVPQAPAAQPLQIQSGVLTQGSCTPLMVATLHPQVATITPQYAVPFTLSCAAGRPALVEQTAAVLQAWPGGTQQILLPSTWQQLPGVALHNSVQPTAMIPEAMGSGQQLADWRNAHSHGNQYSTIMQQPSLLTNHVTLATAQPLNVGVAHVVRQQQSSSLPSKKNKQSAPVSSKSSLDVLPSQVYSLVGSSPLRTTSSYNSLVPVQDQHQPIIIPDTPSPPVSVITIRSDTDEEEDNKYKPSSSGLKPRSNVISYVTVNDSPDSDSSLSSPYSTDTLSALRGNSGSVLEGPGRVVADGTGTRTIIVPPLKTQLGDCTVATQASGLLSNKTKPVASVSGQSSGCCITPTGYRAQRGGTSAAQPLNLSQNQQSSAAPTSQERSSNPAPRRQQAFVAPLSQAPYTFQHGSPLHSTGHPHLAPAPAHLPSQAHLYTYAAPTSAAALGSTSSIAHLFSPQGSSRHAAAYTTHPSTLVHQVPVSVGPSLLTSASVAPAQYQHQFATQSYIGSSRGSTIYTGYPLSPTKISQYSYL

[15] = target: T14, HIPK3 (Homo sapiens, UniProt Q9H422)
T14 construct: DNA label (for qPCR read-out); purchased DiscoveRx (KINOMEscan scanMAX panel, contract assay)

[16] = target: T15, HUNK (Homo sapiens, UniProt P57058)
T15 construct: DNA label (qPCR read-out); purchased KINOMEscan (DiscoveRx) ScanMAX panel

[17] = target: T16, IRAK3 (Homo sapiens, UniProt Q9Y616)
T16 construct: DNA label (qPCR read-out); purchased KINOMEscan (DiscoveRx) ScanMAX panel

[18] = target: LYN (Homo sapiens, UniProt P07948)
[19] = target: MAP3K4 (Homo sapiens, UniProt Q9Y6R4)
[20] = target: MAPKAPK5 (Homo sapiens, UniProt Q8IW41)
[21] = target: T17, MERTK (Homo sapiens, UniProt Q12866)
T17 construct: purchased DiscoveRx (KINOMEscan scanMAX panel, service)
T17 sequence (Q12866 21-999): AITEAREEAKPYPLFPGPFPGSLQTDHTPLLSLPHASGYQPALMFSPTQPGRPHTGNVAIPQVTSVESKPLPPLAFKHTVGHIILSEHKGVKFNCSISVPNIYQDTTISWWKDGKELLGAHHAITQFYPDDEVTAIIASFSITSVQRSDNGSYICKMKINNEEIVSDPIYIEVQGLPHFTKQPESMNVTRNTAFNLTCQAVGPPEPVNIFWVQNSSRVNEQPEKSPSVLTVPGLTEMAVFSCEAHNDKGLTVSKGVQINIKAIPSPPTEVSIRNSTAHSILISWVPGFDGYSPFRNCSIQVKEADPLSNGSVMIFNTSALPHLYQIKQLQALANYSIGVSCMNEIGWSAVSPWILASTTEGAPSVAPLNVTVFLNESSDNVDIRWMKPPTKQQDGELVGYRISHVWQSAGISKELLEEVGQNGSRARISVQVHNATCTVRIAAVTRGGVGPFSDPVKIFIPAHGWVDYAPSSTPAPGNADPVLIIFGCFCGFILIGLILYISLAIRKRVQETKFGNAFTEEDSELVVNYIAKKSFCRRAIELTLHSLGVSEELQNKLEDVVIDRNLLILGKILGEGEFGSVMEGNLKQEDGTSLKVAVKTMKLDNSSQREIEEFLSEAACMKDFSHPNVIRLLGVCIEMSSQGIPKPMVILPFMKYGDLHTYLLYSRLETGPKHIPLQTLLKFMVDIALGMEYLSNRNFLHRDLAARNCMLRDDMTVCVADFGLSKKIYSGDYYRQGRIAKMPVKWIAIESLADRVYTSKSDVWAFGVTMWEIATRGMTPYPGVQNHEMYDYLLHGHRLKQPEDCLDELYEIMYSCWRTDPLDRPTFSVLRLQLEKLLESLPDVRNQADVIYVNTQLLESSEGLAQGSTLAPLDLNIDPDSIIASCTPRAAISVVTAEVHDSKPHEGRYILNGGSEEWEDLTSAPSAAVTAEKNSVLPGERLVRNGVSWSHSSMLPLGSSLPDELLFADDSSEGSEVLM

[22] = target: T18, MLCK (Homo sapiens, UniProt Q32MK0)
T18 construct: DNA label (qPCR read-out); purchased KINOMEscan scanMAX panel (DiscoveRx)

[23] = target: T19, MRCKB (Homo sapiens, UniProt Q9Y5S2)
T19 construct: DNA label (qPCR read-out); purchased KINOMEscan scanMAX panel (DiscoveRx)

[24] = target: T20, MST1R (Homo sapiens, UniProt Q04912)
T20 construct: DNA label (qPCR read-out); purchased KINOMEscan scanMAX panel (DiscoveRx)

[25] = target: T21, MYLK (Homo sapiens, UniProt Q15746)
T21 construct: DNA label (for qPCR read-out); purchased KINOMEscan scanMAX panel (DiscoveRx)

[26] = target: T22, MYLK4 (Homo sapiens, UniProt Q86YV6)
T22 construct: DNA label (for qPCR read-out); purchased KINOMEscan scanMAX panel (DiscoveRx)
T22 sequence (Q86YV6 whole entry): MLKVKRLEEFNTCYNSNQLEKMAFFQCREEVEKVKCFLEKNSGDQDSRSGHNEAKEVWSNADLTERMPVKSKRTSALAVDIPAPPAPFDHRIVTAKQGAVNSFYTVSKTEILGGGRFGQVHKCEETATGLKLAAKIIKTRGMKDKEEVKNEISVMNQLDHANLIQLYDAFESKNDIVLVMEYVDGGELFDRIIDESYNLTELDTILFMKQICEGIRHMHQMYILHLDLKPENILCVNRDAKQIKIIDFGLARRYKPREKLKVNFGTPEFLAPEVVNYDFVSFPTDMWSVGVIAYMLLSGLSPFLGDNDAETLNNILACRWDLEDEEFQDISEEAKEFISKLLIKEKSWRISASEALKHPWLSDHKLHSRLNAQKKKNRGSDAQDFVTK

[27] = target: T23, NIK (Homo sapiens, UniProt Q99558)
T23 construct: DNA label (qPCR read-out); purchased KINOMEscan (ScanMAX panel service)
T23 sequence (Q99558 whole entry): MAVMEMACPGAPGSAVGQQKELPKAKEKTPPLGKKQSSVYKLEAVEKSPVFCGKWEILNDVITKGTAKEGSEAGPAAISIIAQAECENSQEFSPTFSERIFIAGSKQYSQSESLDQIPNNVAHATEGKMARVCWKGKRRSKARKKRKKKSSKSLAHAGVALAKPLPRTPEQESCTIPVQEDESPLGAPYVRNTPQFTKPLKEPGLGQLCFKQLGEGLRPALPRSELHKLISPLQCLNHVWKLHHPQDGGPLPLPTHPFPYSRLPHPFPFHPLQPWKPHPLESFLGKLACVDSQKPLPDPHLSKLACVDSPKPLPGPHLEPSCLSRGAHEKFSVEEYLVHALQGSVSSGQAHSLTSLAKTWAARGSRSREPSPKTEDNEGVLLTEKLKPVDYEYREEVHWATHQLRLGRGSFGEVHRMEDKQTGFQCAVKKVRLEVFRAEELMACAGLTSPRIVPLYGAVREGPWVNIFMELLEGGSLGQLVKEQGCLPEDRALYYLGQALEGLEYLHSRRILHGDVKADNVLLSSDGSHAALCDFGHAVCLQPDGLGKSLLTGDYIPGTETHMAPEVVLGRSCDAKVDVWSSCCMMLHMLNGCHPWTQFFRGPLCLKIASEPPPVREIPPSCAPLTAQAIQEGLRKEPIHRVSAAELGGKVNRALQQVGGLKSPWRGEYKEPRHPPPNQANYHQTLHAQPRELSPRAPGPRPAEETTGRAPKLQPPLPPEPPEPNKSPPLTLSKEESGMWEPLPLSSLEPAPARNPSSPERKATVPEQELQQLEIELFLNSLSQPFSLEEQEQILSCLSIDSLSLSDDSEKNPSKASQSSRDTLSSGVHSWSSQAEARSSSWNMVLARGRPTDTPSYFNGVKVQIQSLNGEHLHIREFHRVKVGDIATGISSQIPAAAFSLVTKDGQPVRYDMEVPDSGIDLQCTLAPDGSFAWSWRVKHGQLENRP

[28] = target: T24, p38-delta (Homo sapiens, UniProt O15264)
T24 construct: purchased DiscoverX (KINOMEscan service)

[29] = target: T25, PDGFRB (Homo sapiens, UniProt P09619)
T25 construct: DNA label (for qPCR read-out); purchased DiscoveRx (KINOMEscan scanMAX service)
T25 sequence (P09619 33-1106): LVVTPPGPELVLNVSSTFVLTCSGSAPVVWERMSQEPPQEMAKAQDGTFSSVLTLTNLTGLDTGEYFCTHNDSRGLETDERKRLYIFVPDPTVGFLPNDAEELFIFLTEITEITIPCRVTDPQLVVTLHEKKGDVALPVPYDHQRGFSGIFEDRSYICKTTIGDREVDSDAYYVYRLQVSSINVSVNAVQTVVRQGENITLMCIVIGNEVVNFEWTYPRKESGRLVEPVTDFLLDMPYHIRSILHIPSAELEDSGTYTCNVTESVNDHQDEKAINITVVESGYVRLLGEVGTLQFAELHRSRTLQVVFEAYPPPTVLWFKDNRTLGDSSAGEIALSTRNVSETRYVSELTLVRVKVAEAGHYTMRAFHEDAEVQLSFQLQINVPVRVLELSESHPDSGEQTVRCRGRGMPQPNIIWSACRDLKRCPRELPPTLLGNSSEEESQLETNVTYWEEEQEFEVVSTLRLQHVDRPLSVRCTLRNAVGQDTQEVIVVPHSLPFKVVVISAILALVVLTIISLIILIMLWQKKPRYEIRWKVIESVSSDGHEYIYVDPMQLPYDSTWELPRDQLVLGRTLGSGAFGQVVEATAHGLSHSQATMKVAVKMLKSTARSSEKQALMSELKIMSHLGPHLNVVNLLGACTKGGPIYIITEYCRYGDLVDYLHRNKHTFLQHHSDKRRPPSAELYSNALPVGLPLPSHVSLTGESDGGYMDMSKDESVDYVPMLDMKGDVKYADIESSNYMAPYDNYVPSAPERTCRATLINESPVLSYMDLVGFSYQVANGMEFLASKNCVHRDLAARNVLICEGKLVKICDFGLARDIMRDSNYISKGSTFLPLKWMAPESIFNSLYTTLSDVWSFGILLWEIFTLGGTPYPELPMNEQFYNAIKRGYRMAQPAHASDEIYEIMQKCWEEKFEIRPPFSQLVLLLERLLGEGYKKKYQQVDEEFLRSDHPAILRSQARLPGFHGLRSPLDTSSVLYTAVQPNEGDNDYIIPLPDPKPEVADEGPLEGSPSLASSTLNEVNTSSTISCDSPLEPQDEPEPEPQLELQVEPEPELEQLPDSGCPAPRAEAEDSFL

[30] = target: T26, PIP5K2C (Homo sapiens, UniProt Q8TBX8)
T26 construct: DNA label (qPCR read-out); purchased KINOMEscan (DiscoveRx) panel
T26 sequence (Q8TBX8 whole entry): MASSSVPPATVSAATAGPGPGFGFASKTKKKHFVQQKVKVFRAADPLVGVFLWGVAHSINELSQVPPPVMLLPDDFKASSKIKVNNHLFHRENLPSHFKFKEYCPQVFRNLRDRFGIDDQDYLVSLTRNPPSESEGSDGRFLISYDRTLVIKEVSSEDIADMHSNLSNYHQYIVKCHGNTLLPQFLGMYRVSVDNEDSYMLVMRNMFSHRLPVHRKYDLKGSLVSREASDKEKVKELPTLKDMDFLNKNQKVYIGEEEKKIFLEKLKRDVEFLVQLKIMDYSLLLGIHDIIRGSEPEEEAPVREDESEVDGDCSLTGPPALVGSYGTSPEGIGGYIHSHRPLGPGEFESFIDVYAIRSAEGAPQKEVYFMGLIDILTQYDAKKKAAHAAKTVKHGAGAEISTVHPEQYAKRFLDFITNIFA

[31] = target: T27, PRKCE (Homo sapiens, UniProt Q02156)
T27 construct: purchased DiscoveRx (KINOMEscan scanMAX panel)

[32] = target: T28, SBK1 (Homo sapiens, UniProt Q52WX2)
T28 construct: purchased DiscoveRx (KINOMEscan scanMAX panel)

[33] = target: T29, SIK2 (Homo sapiens, UniProt Q9H0K1)
T29 construct: purchased KINOMEscan (DiscoveRx)

[34] = target: T30, SRPK2 (Homo sapiens, UniProt P78362)
T30 construct: purchased KINOMEscan (DiscoveRx)

[35] = target: T31, TEC (Homo sapiens, UniProt P42680)
T31 construct: DNA label (for qPCR read-out); purchased DiscoveRx (KINOMEscan scanMAX panel, contract assay)

[36] = target: T32, WNK4 (Homo sapiens, UniProt Q96J92)
T32 construct: purchased KINOMEscan (DiscoveRx) panel service

[37] = target: T33, YANK3 (Homo sapiens, UniProt Q86UX6)
T33 construct: purchased KINOMEscan (DiscoveRx) panel service

Row | Structure (SMILES) | % Ctrl [1] [% Ctrl] | % Ctrl [2] [% Ctrl] | % Ctrl [3] [% Ctrl] | % Ctrl [4] [% Ctrl] | % Ctrl [5] [% Ctrl] | % Ctrl [6] [% Ctrl] | % Ctrl [7] [% Ctrl] | % Ctrl [8] [% Ctrl] | % Ctrl [9] [% Ctrl] | % Ctrl [10] [% Ctrl] | % Ctrl [11] [% Ctrl] | % Ctrl [12] [% Ctrl] | % Ctrl [13] [% Ctrl] | % Ctrl [14] [% Ctrl] | % Ctrl [15] [% Ctrl] | % Ctrl [16] [% Ctrl] | % Ctrl [17] [% Ctrl] | % Ctrl [18] [% Ctrl] | % Ctrl [19] [% Ctrl] | % Ctrl [20] [% Ctrl] | further results
1 | CN(C)C(=O)c1ccc(N2CCCN(c3ccnc4sc(C(N)=O)c(N)c34)CC2)cc1 [15u, 3-amino-4-(4-(4-(dimethylcarbamoyl)phenyl)-1,4-diazepan-1-yl)thieno[2,3-b]pyridine-2-carboxamide] | 95 | 100 | 81 | 100 | 100 | 13 | 86 | 77 | 100 | 78 | 99 | 46 | 88 | 86 | 77 | 99 | 93 | 100 | 90 | 100 | % Ctrl [21]: 89 % Ctrl; % Ctrl [22]: 96 % Ctrl; % Ctrl [23]: 96 % Ctrl; % Ctrl [24]: 97 % Ctrl; % Ctrl [25]: 74 % Ctrl; % Ctrl [26]: 100 % Ctrl; % Ctrl [27]: 100 % Ctrl; % Ctrl [28]: 96 % Ctrl; % Ctrl [29]: 100 % Ctrl; % Ctrl [30]: 80 % Ctrl; % Ctrl [31]: 93 % Ctrl; % Ctrl [32]: 100 % Ctrl; % Ctrl [33]: 96 % Ctrl; % Ctrl [34]: 93 % Ctrl; % Ctrl [35]: 91 % Ctrl; % Ctrl [36]: 60 % Ctrl; % Ctrl [37]: 81 % Ctrl
2 | [2H]C([2H])([2H])N(C(=O)c1ccc(N2CCCN(c3ccnc4sc(C(N)=O)c(N)c34)CC2)cc1)C([2H])([2H])[2H] [15u_D6, 3-amino-4-(4-(4-(bis(methyl-d3)carbamoyl)phenyl)-1,4-diazepan-1-yl)thieno[2,3-b]pyridine-2-carboxamide] | 78 | 100 | 78 | 100 | 100 | 0 | 96 | 69 | 97 | 100 | 95 | 100 | 70 | 71 | 81 | 100 | 89 | 98 | 100 | 64 | % Ctrl [21]: 100 % Ctrl; % Ctrl [22]: 100 % Ctrl; % Ctrl [23]: 100 % Ctrl; % Ctrl [24]: 99 % Ctrl; % Ctrl [25]: 71 % Ctrl; % Ctrl [26]: 94 % Ctrl; % Ctrl [27]: 97 % Ctrl; % Ctrl [28]: 97 % Ctrl; % Ctrl [29]: 93 % Ctrl; % Ctrl [30]: 64 % Ctrl; % Ctrl [31]: 97 % Ctrl; % Ctrl [32]: 83 % Ctrl; % Ctrl [33]: 100 % Ctrl; % Ctrl [34]: 100 % Ctrl; % Ctrl [35]: 81 % Ctrl; % Ctrl [36]: 98 % Ctrl; % Ctrl [37]: 97 % Ctrl
